Experimental data as given in patent US12129246B1, “Hydroquinazoline derivatives for the treatment of a disease or disorder” (Novartis AG, priority 2023, dated 2024).
Read-outs that look alike come from different tables or passages of the source.

How the values were obtained:
human NPR1 = target: T1, human NPR1 (Homo sapiens, UniProt P16066); assay: Cellular cGMP production assay, human NPR1 expressing CHO-K1 cells (CisBio HTRF); format: cell-based; details: for AC50: cGMP production, 30 min at 37° C., 12-point dose-response from 30 μM; for Human NPR1 Amax (% of ANP): maximum cGMP production as percentage of the maximum cGMP produced with ANP
T1 construct: host or cells: CHO-K1
T1 sequence (P16066 33-1061): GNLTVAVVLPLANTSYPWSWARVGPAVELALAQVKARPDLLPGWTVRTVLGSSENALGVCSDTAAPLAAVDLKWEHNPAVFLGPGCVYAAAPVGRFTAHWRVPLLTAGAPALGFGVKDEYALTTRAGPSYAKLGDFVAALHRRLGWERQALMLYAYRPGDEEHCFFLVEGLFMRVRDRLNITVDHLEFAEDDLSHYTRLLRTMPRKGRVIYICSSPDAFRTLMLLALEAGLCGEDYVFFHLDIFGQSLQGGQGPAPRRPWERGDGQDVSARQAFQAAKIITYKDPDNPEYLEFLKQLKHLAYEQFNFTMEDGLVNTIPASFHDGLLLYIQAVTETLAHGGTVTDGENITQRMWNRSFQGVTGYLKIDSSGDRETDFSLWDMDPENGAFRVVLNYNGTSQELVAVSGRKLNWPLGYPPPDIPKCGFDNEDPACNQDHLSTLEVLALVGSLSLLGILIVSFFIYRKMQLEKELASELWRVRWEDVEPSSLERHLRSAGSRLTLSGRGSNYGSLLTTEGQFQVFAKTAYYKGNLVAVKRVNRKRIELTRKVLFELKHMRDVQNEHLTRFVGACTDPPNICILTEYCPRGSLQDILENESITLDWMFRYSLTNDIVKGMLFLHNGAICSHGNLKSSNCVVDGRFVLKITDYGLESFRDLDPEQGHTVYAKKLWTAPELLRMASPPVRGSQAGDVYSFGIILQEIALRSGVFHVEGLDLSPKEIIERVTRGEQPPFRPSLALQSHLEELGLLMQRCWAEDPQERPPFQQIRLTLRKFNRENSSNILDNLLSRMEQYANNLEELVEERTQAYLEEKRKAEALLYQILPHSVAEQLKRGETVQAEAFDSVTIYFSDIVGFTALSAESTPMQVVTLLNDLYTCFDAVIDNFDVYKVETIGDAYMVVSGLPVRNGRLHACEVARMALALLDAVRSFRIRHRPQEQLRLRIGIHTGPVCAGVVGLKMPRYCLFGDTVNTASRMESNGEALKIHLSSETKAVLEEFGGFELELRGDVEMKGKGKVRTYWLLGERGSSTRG
Outline: (§1)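 CHO-K1 cells expressing human or cynomolgus NPR1 treated with compound (12-point, 3-fold dilutions from 30 μM top) in PBS+0.1% BSA with 1 mM IBMX, 30 min at 37° C. After lysis, cGMP quantified by HTRF competition (cGMP-d2/anti-cGMP-cryptate, 1 h RT, 665 nm emission) against a calibrator standard curve.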

monkey NPR1 = monkey NPR1 (Macaca fascicularis, UniProt A0A7N9DBT9); assay: Cellular cGMP production assay, monkey NPR1 expressing CHO-K1 cells (CisBio HTRF); format: cell-based; details: for Monkey NPR1 Amax (% of ANP): maximum cGMP production as percentage of the maximum cGMP produced with ANP
Outline: as §1

[1] = cGMP production, monkey NPR1 CHO-K1 cells, 30 min at 37° C., 12-point dose-response from 30 μM, read-out: Monkey NPR1 AC50

Sequence of monkey NPR1 (A0A7N9DBT9 entry or part of it): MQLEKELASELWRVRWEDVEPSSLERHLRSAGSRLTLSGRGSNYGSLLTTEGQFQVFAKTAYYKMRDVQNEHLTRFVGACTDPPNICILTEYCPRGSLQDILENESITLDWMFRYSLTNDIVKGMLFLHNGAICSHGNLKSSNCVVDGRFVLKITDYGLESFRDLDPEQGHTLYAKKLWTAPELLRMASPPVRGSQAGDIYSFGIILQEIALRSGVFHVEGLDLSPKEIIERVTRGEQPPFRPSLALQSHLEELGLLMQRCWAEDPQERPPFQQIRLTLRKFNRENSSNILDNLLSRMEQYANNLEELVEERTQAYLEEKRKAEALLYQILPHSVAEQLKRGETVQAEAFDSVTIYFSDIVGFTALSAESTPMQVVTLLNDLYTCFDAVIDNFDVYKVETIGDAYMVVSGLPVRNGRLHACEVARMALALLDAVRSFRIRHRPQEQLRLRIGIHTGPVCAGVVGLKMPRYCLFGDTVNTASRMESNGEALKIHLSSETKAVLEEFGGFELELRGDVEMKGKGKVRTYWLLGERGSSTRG

| SMILES | AC50 (human NPR1) | Human NPR1 Amax (% of ANP) (human NPR1) | AC50 (monkey NPR1; [1]) | Monkey NPR1 Amax (% of ANP) (monkey NPR1; monkey NPR1 CHO-K1 cells) | AC50 (monkey NPR1) |
| --- | --- | --- | --- | --- | --- |
| CC[C@H]([C@H]1CC[C@H](C(=O)O)CC1)N(C)c1nc2c(c(N[C@@H](CN3CCC[C@H](CF)C3)c3cnn(C)c3)n1)C[C@H](c1cccc(F)c1)CC2 [Compound 19, (1R,4r)-4-((R)-1-(((R)-4-(((R)-2-((S)-3-(fluoromethyl)piperidin-1-yl)-1-(1-methyl-1H-pyrazol-4-yl)ethyl)amino)-6-(3-fluorophenyl)-5,6,7,8-tetrahydroquinazolin-2-yl)(methyl)amino)propyl)cyclohexane-1-carboxylic acid] | 108 nM | 100.504 % of ANP | 82 nM | 98.174 % of ANP |  |
| CC[C@@H](Nc1nc2c(c(N[C@@H](CN3C4CCCC3CC4)c3ccccc3)n1)C[C@H](c1ccccc1)CC2)[C@H]1CC[C@H](C(=O)O)CC1 [Compound 49, (1R,4r)-4-((1R)-1-(((6R)-4-(((1R)-2-(8-azabicyclo[3.2.1]octan-8-yl)-1-phenylethyl)amino)-6-phenyl-5,6,7,8-tetrahydroquinazolin-2-yl)amino)propyl)cyclohexane-1-carboxylic acid] | 185 nM | 104.186 % of ANP |  | 106.033 % of ANP | 138 nM |
| CC[C@@H]([C@H]1CC[C@@](F)(C(=O)O)CC1)N(C)c1nc2c(c(N[C@H](CN3CCC[C@@H](C)C3)c3cnn(C)c3)n1)C[C@@H](c1ccccc1)CC2 [Compound 21, (1S,4r)-1-fluoro-4-((S)-1-(methyl((S)-4-(((S)-1-(1-methyl-1H-pyrazol-4-yl)-2-((R)-3-methylpiperidin-1-yl)ethyl)amino)-6-phenyl-5,6,7,8-tetrahydroquinazolin-2-yl)amino)propyl)cyclohexane-1-carboxylic acid] | 111 nM | 96.122 % of ANP | 93 nM | 101.974 % of ANP |  |
| CC[C@@H](Nc1nc2c(c(N[C@@H](CN3CCCCCC3)c3cnn(C)c3)n1)C[C@H](c1cccc(F)c1)CC2)[C@H]1CC[C@H](C(=O)O)CC1 [Compound 3, (1R,4r)-4-((R)-1-(((R)-4-(((R)-2-(azepan-1-yl)-1-(1-methyl-1H-pyrazol-4-yl)ethyl)amino)-6-(3-fluorophenyl)-5,6,7,8-tetrahydroquinazolin-2-yl)amino)propyl)cyclohexane-1-carboxylic acid] | 66 nM | 105.403 % of ANP | 45 nM | 107.571 % of ANP |  |
| CC[C@H]([C@H]1CC[C@H](C(=O)O)CC1)N(C)c1nc2c(c(N[C@@H](CN3C4CC5CC(C4)CC3C5)c3cnn(C)c3)n1)C[C@H](c1ccccc1)CC2 [Compound 98, (1R,4r)-4-((R)-1-(((R)-4-(((R)-2-((1R,3R,5R,7R)-2-azaadamantan-2-yl)-1-(1-methyl-1H-pyrazol-4-yl)ethyl)amino)-6-phenyl-5,6,7,8-tetrahydroquinazolin-2-yl)(methyl)amino)propyl)cyclohexane-1-carboxylic acid] | 346 nM | 100.756 % of ANP | 179 nM | 105.533 % of ANP |  |
| CC[C@H]([C@H]1CC[C@H](C(=O)O)CC1)N(C)c1nc2c(c(N[C@@H](CN3CCC[C@H](C)C3)c3cnn(C)c3)n1)C[C@H](c1cccc(F)c1)CC2 [Compound 23, (1R,4r)-4-((R)-1-(((R)-6-(3-fluorophenyl)-4-(((R)-1-(1-methyl-1H-pyrazol-4-yl)-2-((S)-3-methylpiperidin-1-yl)ethyl)amino)-5,6,7,8-tetrahydroquinazolin-2-yl)(methyl)amino)propyl)cyclohexane-1-carboxylic acid] | 115 nM | 120.018 % of ANP |  | 132.182 % of ANP | 72 nM |
| CC[C@@H](Nc1nc2c(c(N[C@@H](CN3C[C@H](C)C[C@H](C)C3)c3cnn(C)c3)n1)C[C@H](c1ccccc1)CC2)[C@H]1CC[C@H](C(=O)O)CC1 [Compound 61, (1R,4r)-4-((R)-1-(((R)-4-(((R)-2-((3S,5R)-3,5-dimethylpiperidin-1-yl)-1-(1-methyl-1H-pyrazol-4-yl)ethyl)amino)-6-phenyl-5,6,7,8-tetrahydroquinazolin-2-yl)amino)propyl)cyclohexane-1-carboxylic acid] | 207 nM | 104.236 % of ANP | 122 nM | 102.127 % of ANP |  |
| CC[C@H]([C@H]1CC[C@H](CC(=O)O)CC1)N(C)c1nc2c(c(N[C@@H](CN3CCC[C@H](C)C3)c3cnn(C)c3)n1)C[C@H](c1ccccc1)CC2 [Compound 67, 2-((1R,4r)-4-((R)-1-(methyl((R)-4-(((R)-1-(1-methyl-1H-pyrazol-4-yl)-2-((S)-3-methylpiperidin-1-yl)ethyl)amino)-6-phenyl-5,6,7,8-tetrahydroquinazolin-2-yl)amino)propyl)cyclohexyl)acetic acid] | 229 nM | 95.228 % of ANP | 155 nM | 98.233 % of ANP |  |
| CC[C@@H](Nc1nc2c(c(N[C@@H](CN3CCCCC3)c3cnc(C)s3)n1)C[C@H](c1ccccc1)CC2)[C@H]1CC[C@H](C(=O)O)CC1 [Compound 119, (1R,4r)-4-((R)-1-(((R)-4-(((S)-1-(2-methylthiazol-5-yl)-2-(piperidin-1-yl)ethyl)amino)-6-phenyl-5,6,7,8-tetrahydroquinazolin-2-yl)amino)propyl)cyclohexane-1-carboxylic acid] | 542 nM | 89.681 % of ANP | 378 nM | 90.965 % of ANP |  |
| CC[C@H]([C@H]1CC[C@H](C(=O)O)CC1)N(C)c1nc2c(c(N[C@@H](CN3CCC[C@H](C)C3)c3cnn(C)c3)n1)C[C@@H](c1ccccc1F)CC2 [Compound 141, (1R,4r)-4-((R)-1-(((S)-6-(2-fluorophenyl)-4-(((R)-1-(1-methyl-1H-pyrazol-4-yl)-2-((S)-3-methylpiperidin-1-yl)ethyl)amino)-5,6,7,8-tetrahydroquinazolin-2-yl)(methyl)amino)propyl)cyclohexane-1-carboxylic acid] | 888 nM | 102.728 % of ANP | 731 nM | 105.798 % of ANP |  |
| CC[C@H]([C@H]1CC[C@H](C(=O)O)CC1)N(C)c1nc2c(c(N[C@@H](CN3CCCC[C@@H]3CO)c3cnn(CC)c3)n1)C[C@H](c1cccc(F)c1)CC2 [Compound 104, (1R,4r)-4-((R)-1-(((R)-4-(((R)-1-(1-ethyl-1H-pyrazol-4-yl)-2-((R)-2-(hydroxymethyl)piperidin-1-yl)ethyl)amino)-6-(3-fluorophenyl)-5,6,7,8-tetrahydroquinazolin-2-yl)(methyl)amino)propyl)cyclohexane-1-carboxylic acid] | 396 nM | 106.357 % of ANP | 290 nM | 109.908 % of ANP |  |
| CN(c1nc2c(c(N[C@@H](CN3C4CCCC3CCC4)c3cnn(C)c3)n1)C[C@H](c1ccccc1)CC2)[C@H](C1CC1)[C@H]1CC[C@H](C(=O)O)CC1 [Compound 133, (1R,4r)-4-((R)-(((R)-4-(((R)-2-((1S,5S)-9-azabicyclo[3.3.1]nonan-9-yl)-1-(1-methyl-1H-pyrazol-4-yl)ethyl)amino)-6-phenyl-5,6,7,8-tetrahydroquinazolin-2-yl)(methyl)amino)(cyclopropyl)methyl)cyclohexane-1-carboxylic acid] | 765 nM | 95.978 % of ANP |  | 99.809 % of ANP | 647 nM |
